In patent US20050250801A1, “Method of treating cancer with azaspirane compositions” (priority 2003, published 2005):
Read-outs that look alike come from different tables or passages of the source.

What was measured:
PC-3 = assay: NCI in vitro SRB assay, Prostate Cancer; type: cell-based; settings: for CC50 / GI50: Homo sapiens
Protocol: (§1) An in vitro assay which tested the ability of N,N,-diethyl-8,8-dipropyl-2-azaspiro[4,5]decane-2-propanamine dimaleate (Compound 1) to inhibit the growth of known cancer cell lines was performed by the National Cancer Institute in accordance with standard procedures. See: Lin, Z. X., Hoult, J. R., and Raman, A. Sulphorhodamine B assay for measuring proliferation of a pigmented melanocyte cell line and its application to the evaluation of crude drugs used in the treatment of vitiligo. J Ethnopharmacol. 66: 141-150, 1999. Briefly, selected tumor cell lines were cultured in media containing five different concentrations of Compound 1. After 48 hours of continuous exposure, a sulforhodamine B (SRB) assay was used to estimate cell viability or growth via optical measurements.
(§2) From the measurements, the following values were determined: 1) the concentration of Compound 1 at which a tumor cell growth inhibition of 50% (relative to control) occurs (GI50), 2) the concentration of Compound 1 at which no growth occurs (total growth inhibition, TGI), and 3) the concentration of Compound 1 at which the […] (LC 50). […] FIG. 6 illustrates, graphically, tumor cell growth as a function of Compound 1 concentration of the scanned tumor cell lines.

DU-145 = assay: NCI in vitro SRB assay, Prostate Cancer; type: cell-based; settings: for GI50: Homo sapiens
Protocol: as §1, §2

[1] = tested on: chorioallantoic membrane (CAM); assay: Anti-angiogenesis CAM assay; type: in vivo, White Leghorn eggs; settings: 48 hour exposure, ten eggs
Protocol: The dosing was effected by pipetting 40 μl of the indicated solution onto a 13 mm round Thermanox® coverslip and allowing it to air dry. After the material appeared dry, the coverslip was placed onto the chorioallantoic membrane (CAM) of each egg insuring contact of the dried test article with the CAM. After dosing, the eggs were returned to the incubator for approximately 48 hours. Following the 48 hour exposure period, the eggs were removed from the incubator, observed for viability, and the exposed area under the coverslip was examined for loss of vasculature.

HUVEC cells = assay: Induction of apoptosis, DNA fragmentation analysis, HUVEC; type: cell-based, human; settings: 16 hours treatment
Protocol: T84, CaCo-2 and HUVEC cells, respectively, were grown in 100 mm dishes for 7-9 days, culture media for HUVEC was EGM-2 (Clonetics, BioWhitaker Co.), until they reached semi-confluency. Cell monolayers were then treated for 12 hours (CaCo-2 and T84) and 16 hours (HUVEC), respectively, at the indicated concentrations of N,N,-diethyl-8,8-dipropyl-2-azaspiro[4,5]decane-2-propanamine dimaleate (Compound 1) in culture media. Cells were collected by trypsinization and the apoptotic DNA was isolated from these cells following the instructions of the DNA fragmentation analysis kit (Boehringer Mannheim Corp., Indianapolis, Ind.). The apoptotic DNA was evaluated using 1.5% agarose gel electrophoresis followed by staining with ethidium bromide. M denotes the lane containing molecular weight markers of DNA.

RPMI-8226 = assay: NCI in vitro SRB assay, Leukemia; type: cell-based; settings: for CC50 / GI50: Homo sapiens
Protocol: as §1, §2

CCRF-CEM = assay: NCI in vitro SRB assay, Leukemia; type: cell-based; settings: for GI50 / CC50: Homo sapiens
Protocol: as §1, §2

CaCo-2 cells = assay: Inhibition of CaCo-2 colon carcinoma cell proliferation (WST-1, Example 1); type: cell-based; settings: Homo sapiens, 24 hours incubation
Protocol: The effect of N,N,-diethyl-8,8-dipropyl-2-azaspiro[4,5]decane-2-propanamine dimaleate (Compound 1) on proliferation of human colon carcinoma cells T84 and CaCo-2 was evaluated in the following manner. Cell proliferation was measured by WST-1 dye conversion to Formazan assay using the proliferation kit from BioVision, CA. The procedure used was essentially as described in the manufacture's instructions. Briefly, cells were grown for 7 days until they formed semi-confluent monolayers. On day 7, cells were trypsinized and resuspended in 96-well plates at a concentration of approximately 40,000 cells/well and allowed to grow for 24 hours at 37° C.
Subsequently, fresh media containing increasing concentrations of Compound 1, as indicated in the FIG. 1, were added and assay plates were further incubated for an additional period of 24 hours. A solution of 5 μl of WST-1 dye per well was added and plates were read after 4 hours at 440 and 600 nm using an ELISA plate reader. The absorbance at 440 minus that at 600 nm is directly proportion to the number of proliferating cells. All samples were measured in triplicate and results were expressed as an average of three determinations.

Various Tumor Cell Lines = assay: NCI in vitro SRB tumor cell line assay, panel summary; type: cell-based
Protocol: as §1, §2

[2] = read-out: Log10 GI50 (converted)
[3] = RPMI-8226, Log10 conc -4.0 Moles/L
[4] = RPMI-8226, Log10 conc -5.0 Moles/L
[5] = RPMI-8226, Log10 conc -6.0 Moles/L
[6] = RPMI-8226, Log10 conc -7.0 Moles/L
[7] = RPMI-8226, Log10 conc -8.0 Moles/L

SMILES: CCCC1(CCC)CCC2(CCN(CCCN(CC)CC)C2)CC1.O=C(O)/C=C\C(=O)O.O=C(O)/C=C\C(=O)O [Compound 1, N,N,-diethyl-8,8-dipropyl-2-azaspiro[4,5]decane-2-propanamine dimaleate]
- CC50 (PC-3; PC-3, read-out: LC50): 6680 nM
- CC50 (PC-3; PC-3, read-out: Log10 LC50 (converted)): 6610 nM
- GI50 (PC-3; PC-3, read-out: GI50): 1710 nM
- GI50 (PC-3; PC-3, read-out: Log10 GI50 (converted)): 1700 nM
- Log10 TGI (PC-3; PC-3): −5.47
- TGI (PC-3; PC-3): 3380 nM
- Mean Optical Densities (PC-3; PC-3, Log10 conc -4.0 Moles/L): 0.037
- Percent Growth (PC-3; PC-3, Log10 conc -4.0 Moles/L): −90%
- Mean Optical Densities (PC-3; PC-3, Log10 conc -5.0 Moles/L): 0.073
- Percent Growth (PC-3; PC-3, Log10 conc -5.0 Moles/L): −80%
- Mean Optical Densities (PC-3; PC-3, Log10 conc -6.0 Moles/L): 1.953
- Percent Growth (PC-3; PC-3, Log10 conc -6.0 Moles/L): 89%
- Mean Optical Densities (PC-3; PC-3, Log10 conc -7.0 Moles/L): 2.067
- Percent Growth (PC-3; PC-3, Log10 conc -7.0 Moles/L): 96%
- Mean Optical Densities (PC-3; PC-3, Log10 conc -8.0 Moles/L): 2.116
- Percent Growth (PC-3; PC-3, Log10 conc -8.0 Moles/L): 99%
- Log10 TGI (DU-145): −5.51
- TGI (DU-145): 3090 nM
- GI50 (DU-145; read-out: GI50): 1700 nM
- GI50 (DU-145; [2]): 1700 nM
- Mean Optical Densities (DU-145; Log10 conc -4.0 Moles/L): −0.032
- Percent Growth (DU-145; Log10 conc -4.0 Moles/L): −100%
- Mean Optical Densities (DU-145; Log10 conc -5.0 Moles/L): 0.005
- Percent Growth (DU-145; Log10 conc -5.0 Moles/L): −98%
- Mean Optical Densities (DU-145; Log10 conc -6.0 Moles/L): 0.733
- Percent Growth (DU-145; Log10 conc -6.0 Moles/L): 94%
- Mean Optical Densities (DU-145; Log10 conc -7.0 Moles/L): 0.766
- Percent Growth (DU-145; Log10 conc -7.0 Moles/L): 101%
- Mean Optical Densities (DU-145; Log10 conc -8.0 Moles/L): 0.728
- Percent Growth (DU-145; Log10 conc -8.0 Moles/L): 93%
- Dead Eggs ([1]; Dose per egg 25 μg (0.625 mg/ml)): 0
- Dead Eggs ([1]; Dose per egg 50 μg (1.25 mg/ml)): 0
- Dead Eggs ([1]; Dose per egg 100 μg): 4
- Dead Eggs ([1]; Dose per egg 200 μg (5 mg/ml)): 3
- Dead Eggs ([1]; Dose per egg 400 μg (10 mg/ml)): 7
- DNA ladder formation (apoptosis) (HUVEC cells): formation of DNA laddering in a dose-dependent manner
- CC50 (RPMI-8226; RPMI-8226, read-out: LC50): > 100000 nM
- CC50 (RPMI-8226; RPMI-8226, read-out: Log10 LC50 (converted)): > 100000 nM
- GI50 (RPMI-8226; RPMI-8226, read-out: GI50): 283 nM
- GI50 (RPMI-8226; RPMI-8226, read-out: Log10 GI50 (converted)): 282 nM
- Log10 TGI (RPMI-8226; RPMI-8226): −4.53
- TGI (RPMI-8226; RPMI-8226): 29800 nM
- Mean Optical Densities (RPMI-8226; [3]): 0.185
- Percent Growth (RPMI-8226; [3]): −3%
- Mean Optical Densities (RPMI-8226; [4]): 0.218
- Percent Growth (RPMI-8226; [4]): 3%
- Mean Optical Densities (RPMI-8226; [5]): 0.371
- Percent Growth (RPMI-8226; [5]): 21%
- Mean Optical Densities (RPMI-8226; [6]): 0.843
- Percent Growth (RPMI-8226; [6]): 74%
- Mean Optical Densities (RPMI-8226; [7]): 0.918
- Percent Growth (RPMI-8226; [7]): 83%
- Log10 TGI (CCRF-CEM): >−4.00
- TGI (CCRF-CEM): >100000 nM
- GI50 (CCRF-CEM; read-out: GI50): 1090 nM
- CC50 (CCRF-CEM; read-out: LC50): > 100000 nM
- GI50 (CCRF-CEM; [2]): 1100 nM
- CC50 (CCRF-CEM; read-out: Log10 LC50 (converted)): > 100000 nM
- Mean Optical Densities (CCRF-CEM; Log10 conc -4.0 Moles/L): 0.115
- Percent Growth (CCRF-CEM; Log10 conc -4.0 Moles/L): 6%
- Mean Optical Densities (CCRF-CEM; Log10 conc -5.0 Moles/L): 0.158
- Percent Growth (CCRF-CEM; Log10 conc -5.0 Moles/L): 13%
- Mean Optical Densities (CCRF-CEM; Log10 conc -6.0 Moles/L): 0.409
- Percent Growth (CCRF-CEM; Log10 conc -6.0 Moles/L): 51%
- Mean Optical Densities (CCRF-CEM; Log10 conc -7.0 Moles/L): 0.597
- Percent Growth (CCRF-CEM; Log10 conc -7.0 Moles/L): 81%
- Mean Optical Densities (CCRF-CEM; Log10 conc -8.0 Moles/L): 0.611
- Percent Growth (CCRF-CEM; Log10 conc -8.0 Moles/L): 83%
- IC50 (CaCo-2 cells): 625 to 1250 nM
- Log10 GI50, MG_MID (Various Tumor Cell Lines; all cell lines of Table 2): −5.93
- Log10 TGI, Delta (Various Tumor Cell Lines; all cell lines of Table 2): 1.18
- Log10 TGI, MG_MID (Various Tumor Cell Lines; all cell lines of Table 2): −5.45
- Log10 TGI, Range (Various Tumor Cell Lines; all cell lines of Table 2): 2.62
- CC50 (Various Tumor Cell Lines; read-out: Log10 LC50, MG_MID (converted)): 8710 nM
